Test results from ChEMBL document CHEMBL1139487, “Discovery of corticotropin releasing factor 2 receptor selective sauvagine analogues for treatment of skeletal muscle atrophy” (J Med Chem, 2005).
Square brackets hold non-standard residues; d marks the D form. Peptide text beside a SMILES is read from it. 1Nal = N[C@@H](Cc1cccc2ccccc12)C(=O)O; pGlu = O=C1CC[C@@H](C(=O)O)N1

Key:
[1] = molecular target: T1, Corticotropin-releasing factor receptor 1 (Mus musculus, UniProt P35347); experiment: In vitro effective concentration for mouse corticotropin releasing factor 1 receptor
T1 sequence (P35347 whole entry): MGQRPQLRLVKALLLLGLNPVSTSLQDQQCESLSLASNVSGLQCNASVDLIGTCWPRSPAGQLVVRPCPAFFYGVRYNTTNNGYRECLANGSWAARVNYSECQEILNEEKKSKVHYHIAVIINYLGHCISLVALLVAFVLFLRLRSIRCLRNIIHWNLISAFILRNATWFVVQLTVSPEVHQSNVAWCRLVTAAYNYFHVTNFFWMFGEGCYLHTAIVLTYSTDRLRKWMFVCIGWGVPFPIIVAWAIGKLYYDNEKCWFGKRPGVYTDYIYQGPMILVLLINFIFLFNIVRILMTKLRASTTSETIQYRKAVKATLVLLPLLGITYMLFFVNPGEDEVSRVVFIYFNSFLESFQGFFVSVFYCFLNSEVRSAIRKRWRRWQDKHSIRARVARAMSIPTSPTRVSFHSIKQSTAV

[2] = molecular target: Corticotropin-releasing factor receptor 2 (Mus musculus, UniProt Q60748); experiment: In vitro effective concentration for mouse corticotropin releasing factor 2 receptor
Sequence of Corticotropin-releasing factor receptor 2 (Q60748 whole entry): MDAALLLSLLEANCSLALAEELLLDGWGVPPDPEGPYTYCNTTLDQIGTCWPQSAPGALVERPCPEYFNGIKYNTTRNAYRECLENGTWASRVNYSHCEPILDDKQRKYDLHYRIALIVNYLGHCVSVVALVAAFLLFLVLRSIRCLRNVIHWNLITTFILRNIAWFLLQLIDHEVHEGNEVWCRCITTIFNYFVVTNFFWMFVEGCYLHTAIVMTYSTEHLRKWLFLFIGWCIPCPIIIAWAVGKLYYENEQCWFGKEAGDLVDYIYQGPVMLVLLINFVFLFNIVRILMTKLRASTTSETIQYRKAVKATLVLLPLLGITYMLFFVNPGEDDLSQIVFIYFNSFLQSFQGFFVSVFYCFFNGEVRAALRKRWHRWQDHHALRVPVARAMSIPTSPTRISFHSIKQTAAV

Row | Compound | EC50 [1] [nM] | EC50 [2] [nM]
1 | CC[C@H](C)[C@H](NC(=O)[C@@H](NC(=O)[C@H](CC(=O)O)NC(=O)[C@H](CC(C)C)NC(=O)[C@H](CC(C)C)NC(=O)[C@H](CC(C)C)NC(=O)[C@H](CCCNC(=N)N)NC(=O)[C@H](CC(N)=O)NC(=O)[C@H](CC(N)=O)NC(=O)[C@H](C)NC(=O)[C@H](C)NC(=O)[C@H](CCC(N)=O)NC(=O)[C@H](CCC(N)=O)NC(=O)[C@H](CCCCN)NC(=O)[C@H](CCC(=O)O)NC(=O)[C@H](CCCCN)NC(=O)[C@H](CCC(=O)O)NC(=O)[C@H](CCC(N)=O)NC(=O)[C@H](CCCCN)NC(=O)[C@H](CCC(=O)O)NC(=O)[C@@H](NC(=O)[C@H](CCC(=O)O)NC(=O)[C@@H](NC(=O)[C@H](CCSC)NC(=O)[C@H](CCCCN)NC(=O)[C@H](CCCNC(=N)N)NC(=O)[C@H](CC(C)C)NC(=O)[C@H](CC(C)C)NC(=O)[C@H](Cc1ccc(O)cc1)NC(=O)[C@H](CCC(N)=O)NC(=O)[C@@H]1CCCN1C(=O)[C@H](CC(C)C)NC(=O)[C@H](CC(=O)O)NC(=O)[C@@H](NC(=O)[C@H](CO)NC(=O)[C@@H](NC(=O)[C@@H]1CCCN1C(=O)[C@@H]1CCCN1C(=O)CNC(=O)[C@@H]1CCC(=O)N1)[C@@H](C)CC)[C@@H](C)CC)[C@@H](C)CC)[C@@H](C)CC)[C@@H](C)O)C(=O)O | 325 | 10.7
2 | CC[C@H](C)[C@H](NC(=O)[C@@H](NC(=O)[C@H](CC(=O)O)NC(=O)[C@H](CC(C)C)NC(=O)[C@H](CC(C)C)NC(=O)[C@H](CC(C)C)NC(=O)[C@H](CCCNC(=N)N)NC(=O)[C@H](CC(N)=O)NC(=O)[C@H](CC(N)=O)NC(=O)[C@H](C)NC(=O)[C@H](C)NC(=O)[C@H](CCC(N)=O)NC(=O)[C@H](CCC(N)=O)NC(=O)[C@H](CCCCN)NC(=O)[C@H](CCC(=O)O)NC(=O)[C@H](CCCCN)NC(=O)[C@H](CCC(=O)O)NC(=O)[C@H](CCC(N)=O)NC(=O)[C@H](CCCCN)NC(=O)[C@H](CCC(=O)O)NC(=O)[C@@H](NC(=O)[C@H](CCC(=O)O)NC(=O)[C@@H](NC(=O)[C@H](CCSC)NC(=O)[C@H](CCCCN)NC(=O)[C@H](CCCNC(=N)N)NC(=O)[C@H](CC(C)C)NC(=O)[C@H](CC(C)C)NC(=O)[C@H](CCC(N)=O)NC(=O)[C@H](CCC(N)=O)NC(=O)[C@@H]1CCCN1C(=O)[C@H](CC(C)C)NC(=O)[C@H](CC(=O)O)NC(=O)[C@@H](NC(=O)[C@H](CO)NC(=O)[C@@H](NC(=O)[C@@H]1CCCN1C(=O)[C@@H]1CCCN1C(=O)CNC(=O)[C@@H]1CCC(=O)N1)[C@@H](C)CC)[C@@H](C)CC)[C@@H](C)CC)[C@@H](C)CC)[C@@H](C)O)C(=O)O | > 1000 | 29.9
3 | CC[C@H](C)[C@H](NC(=O)[C@@H](NC(=O)[C@H](CC(=O)O)NC(=O)[C@H](CC(C)C)NC(=O)[C@H](CC(C)C)NC(=O)[C@H](CC(C)C)NC(=O)[C@H](CCCNC(=N)N)NC(=O)[C@H](CC(N)=O)NC(=O)[C@H](CC(N)=O)NC(=O)[C@H](C)NC(=O)[C@H](C)NC(=O)[C@H](CCC(N)=O)NC(=O)[C@H](CCC(N)=O)NC(=O)[C@H](CCCCN)NC(=O)[C@H](CCC(=O)O)NC(=O)[C@H](CCCCN)NC(=O)[C@H](CCC(=O)O)NC(=O)[C@H](CCC(N)=O)NC(=O)[C@H](CCCCN)NC(=O)[C@H](CCC(=O)O)NC(=O)[C@@H](NC(=O)[C@H](CCC(=O)O)NC(=O)[C@@H](NC(=O)[C@H](CCSC)NC(=O)[C@H](CCCCN)NC(=O)[C@H](CCCNC(=N)N)NC(=O)[C@H](CC(C)C)NC(=O)[C@H](CC(C)C)NC(=O)[C@H](Cc1cccc2ccccc12)NC(=O)[C@H](CCC(N)=O)NC(=O)[C@@H]1CCCN1C(=O)[C@H](CC(C)C)NC(=O)[C@H](CC(=O)O)NC(=O)[C@@H](NC(=O)[C@H](CO)NC(=O)[C@@H](NC(=O)[C@@H]1CCCN1C(=O)[C@@H]1CCCN1C(=O)CNC(=O)[C@@H]1CCC(=O)N1)[C@@H](C)CC)[C@@H](C)CC)[C@@H](C)CC)[C@@H](C)CC)[C@@H](C)O)C(=O)O ([pGlu]GPPISIDLPQ[1Nal]LLRKMIEIEKQEKEKQQAANNRLLLDTI-OH) | 367 | 14.1

Stronger by EC50 [1], values ahead:

Row | EC50 [1] [nM] | EC50 [2] [nM] | Compound
4 | 85 | 5.9 | CC[C@H](C)[C@H](NC(=O)[C@@H](NC(=O)[C@H](CC(=O)O)NC(=O)[C@H](CC(C)C)NC(=O)[C@H](CC(C)C)NC(=O)[C@H](CC(C)C)NC(=O)[C@H](CCCNC(=N)N)NC(=O)[C@H](CC(N)=O)NC(=O)[C@H](CC(N)=O)NC(=O)[C@H](C)NC(=O)[C@H](C)NC(=O)[C@H](CCC(N)=O)NC(=O)[C@H](CCC(N)=O)NC(=O)[C@H](CCCCN)NC(=O)[C@H](CCC(=O)O)NC(=O)[C@H](CCCCN)NC(=O)[C@H](CCC(=O)O)NC(=O)[C@H](CCC(N)=O)NC(=O)[C@H](CCCCN)NC(=O)[C@H](CCC(=O)O)NC(=O)[C@@H](NC(=O)[C@H](CCC(=O)O)NC(=O)[C@@H](NC(=O)[C@H](CCSC)NC(=O)[C@H](CCCCN)NC(=O)[C@H](CCCNC(=N)N)NC(=O)[C@H](CC(C)C)NC(=O)[C@H](CC(C)C)NC(=O)[C@@H](NC(=O)[C@H](Cc1ccccc1)NC(=O)[C@@H]1CCCN1C(=O)[C@H](CC(C)C)NC(=O)[C@H](CC(=O)O)NC(=O)[C@@H](NC(=O)[C@H](CO)NC(=O)[C@@H](NC(=O)[C@@H]1CCCN1C(=O)[C@@H]1CCCN1C(=O)CNC(=O)[C@@H]1CCC(=O)N1)[C@@H](C)CC)[C@@H](C)CC)C(C)C)[C@@H](C)CC)[C@@H](C)CC)[C@@H](C)O)C(=O)O
5 | 63.6 | 4.1 | CC[C@H](C)[C@H](NC(=O)[C@@H](NC(=O)[C@H](CC(=O)O)NC(=O)[C@H](CC(C)C)NC(=O)[C@H](CC(C)C)NC(=O)[C@H](CC(C)C)NC(=O)[C@H](CCCNC(=N)N)NC(=O)[C@H](CC(N)=O)NC(=O)[C@H](CC(N)=O)NC(=O)[C@H](C)NC(=O)[C@H](C)NC(=O)[C@H](CCC(N)=O)NC(=O)[C@H](CCC(N)=O)NC(=O)[C@H](CCCCN)NC(=O)[C@H](CCC(=O)O)NC(=O)[C@H](CCCCN)NC(=O)[C@H](CCC(=O)O)NC(=O)[C@H](CCC(N)=O)NC(=O)[C@H](CCCCN)NC(=O)[C@H](CCC(=O)O)NC(=O)[C@@H](NC(=O)[C@H](CCC(=O)O)NC(=O)[C@@H](NC(=O)[C@H](CCSC)NC(=O)[C@H](CCCCN)NC(=O)[C@H](CCCNC(=N)N)NC(=O)[C@H](CC(C)C)NC(=O)[C@H](CC(C)C)NC(=O)[C@H](Cc1ccccc1)NC(=O)[C@H](Cc1ccc(O)cc1)NC(=O)[C@@H]1CCCN1C(=O)[C@H](CC(C)C)NC(=O)[C@H](CC(=O)O)NC(=O)[C@@H](NC(=O)[C@H](CO)NC(=O)[C@@H](NC(=O)[C@@H]1CCCN1C(=O)[C@@H]1CCCN1C(=O)CNC(=O)[C@@H]1CCC(=O)N1)[C@@H](C)CC)[C@@H](C)CC)[C@@H](C)CC)[C@@H](C)CC)[C@@H](C)O)C(=O)O
